Test results: US7915293B2, “Ubiquitin ligase inhibitors” (Rigel Pharmaceuticals, Inc., priority 2003, dated 2011)

Key:
Set-up in all cases: key: “+” indicates that the compound exibits inhibitory activity; “−” indicates that low or no inhibitory activity was observed
A549 cells [1] = assay: Non-photographic proliferation analysis (Promega Cell titer Aqueous), A549; type: cell-based; details: 6 concentrations tested
Procedure, shortened: (§1)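 HeLa, A549 and HCT116 cells, 2,000 per well in RPMI with 5% FBS, were given compounds 24 h after plating as 6.3-fold duplicate dilutions from 10 mM stock, diluted 500-fold into the wells. After 48 h at 37° C, 5% CO2, Cell titer Aqueous reagent was added for 45 min and absorbance read at 490 nm.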

MDM2 / p53 substrate = MDM2 / p53 substrate (Homo sapiens, UniProt Q00987); assay: Plate-based MDM2 substrate ligation assay (MDM2-P53-FLAG); type: biochemical; details: 8 concentrations tested
MDM2 / p53 substrate, sequence (Q00987 whole entry): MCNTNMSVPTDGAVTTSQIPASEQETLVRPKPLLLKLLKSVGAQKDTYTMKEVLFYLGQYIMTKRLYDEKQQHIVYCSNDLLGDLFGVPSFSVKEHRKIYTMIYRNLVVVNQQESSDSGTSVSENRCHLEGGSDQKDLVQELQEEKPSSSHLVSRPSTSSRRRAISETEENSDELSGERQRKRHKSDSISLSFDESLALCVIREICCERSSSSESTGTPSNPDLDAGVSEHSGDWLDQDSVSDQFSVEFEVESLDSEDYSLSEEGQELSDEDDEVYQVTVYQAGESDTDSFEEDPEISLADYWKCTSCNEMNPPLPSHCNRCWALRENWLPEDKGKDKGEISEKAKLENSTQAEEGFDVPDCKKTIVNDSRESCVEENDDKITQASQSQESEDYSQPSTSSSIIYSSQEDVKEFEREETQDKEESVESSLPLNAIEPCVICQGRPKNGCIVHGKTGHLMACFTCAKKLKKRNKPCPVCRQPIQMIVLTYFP
Source text: This assay was preformed essentially as described in WO 03/076899 (page 77, line 5 to page 80, line 13), hereby incorporated by reference in its entirety.

[2] = biological target: E3 (His-APC11/APC2-"APC") (Homo sapiens, UniProt Q9NYG5+Q9UJX6); assay: Plate-based E3 ligase assay (APC FLAG), auto-ubiquitination; type: biochemical; details: 8 concentrations tested
E3 (His-APC11/APC2-"APC"), sequence (Q9NYG5 whole entry): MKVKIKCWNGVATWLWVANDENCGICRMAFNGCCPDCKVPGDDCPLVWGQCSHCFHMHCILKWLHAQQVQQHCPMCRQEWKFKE
E3 (His-APC11/APC2-"APC"), sequence (Q9UJX6 whole entry): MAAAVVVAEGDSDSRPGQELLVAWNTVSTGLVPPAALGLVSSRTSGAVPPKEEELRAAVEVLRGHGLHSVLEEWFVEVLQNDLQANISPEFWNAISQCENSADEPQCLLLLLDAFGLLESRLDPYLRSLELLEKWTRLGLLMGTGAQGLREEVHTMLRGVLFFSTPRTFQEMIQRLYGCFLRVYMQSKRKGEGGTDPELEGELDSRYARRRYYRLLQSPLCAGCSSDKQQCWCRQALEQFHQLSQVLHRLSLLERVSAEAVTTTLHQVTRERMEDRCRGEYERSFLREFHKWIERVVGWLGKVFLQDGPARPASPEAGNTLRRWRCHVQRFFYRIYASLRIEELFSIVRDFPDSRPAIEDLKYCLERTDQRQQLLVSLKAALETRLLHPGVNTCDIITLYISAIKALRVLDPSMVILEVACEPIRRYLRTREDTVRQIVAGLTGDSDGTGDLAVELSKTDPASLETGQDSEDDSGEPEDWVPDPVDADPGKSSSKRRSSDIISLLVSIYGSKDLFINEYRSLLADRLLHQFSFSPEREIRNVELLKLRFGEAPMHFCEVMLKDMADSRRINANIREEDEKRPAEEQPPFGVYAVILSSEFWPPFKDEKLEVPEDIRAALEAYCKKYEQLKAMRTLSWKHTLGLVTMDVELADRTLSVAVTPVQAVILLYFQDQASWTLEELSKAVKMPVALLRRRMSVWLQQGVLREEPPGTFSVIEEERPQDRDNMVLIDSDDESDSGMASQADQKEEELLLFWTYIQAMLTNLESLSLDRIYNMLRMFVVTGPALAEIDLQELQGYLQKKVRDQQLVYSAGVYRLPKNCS
Procedure, shortened: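 His-APC11/APC2 auto-ubiquitination was run in casein-blocked nickel plates for 1 h at room temperature, with E1 at 5 ng/well, UbcH5c at 20 ng/well and APC at 100 ng/well. Buffer was 62.5 mM Tris pH 7.6, 3 mM MgCl2, 1 mM DTT, 2.5 mM ATP and Flag-ubiquitin at 100 ng/well. Detection used anti-Flag/HRP chemiluminescence, and IC50 was typically from 6 or 8 concentrations versus a DMSO control.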

E3 MDM2 = E3 MDM2 (Homo sapiens, UniProt Q00987); assay: Plate-based autoubiquitination of the E3 MDM2 (MDM2-FLAG); type: biochemical; details: 8 concentrations tested
E3 MDM2, sequence (Q00987 whole entry): as the sequence (Q00987 whole entry) above
Protocol: E3 (His-APC11/APC2-“APC”) auto-ubiquitination was measured as described in U.S. patent application Ser. No. 09/826,312 (Publication No. US-2002-0042083-A1), which is incorporated herein in its entirety. Details of the protocol are described below. Activity in the presence of the compound was determined relative to a parallel control in which only DMSO was added. Values of the IC50 were typically determined using 6 or 8 different concentrations of the compound, although as few as 2 concentrations may be used to approximate the IC50 value.
Nickel-coated 96-well plates (Pierce 15242) were blocked for 1 hour with 100 μl of blocking buffer at room temperature. The plates were washed 4 times with 225 μl of 1×PBS and 80 μl of the reaction buffer were added that contained 100 ng/well of Flag-ubiquitin. To this, 10 μl of the test compound diluted in DMSO were added. After the test compound was added, 10 μl of E1 (human), E2 (Ubch5c), and APC in Protein Buffer was added to obtain a final concentration of 5 ng/well of E1, 20 ng/well of E2 and 100 ng/well of APC. The plate were shaken for 10 minutes and incubated at room temperature for 1 hour. After incubation, the plates were washed 4 times with 225 μl of 1×PBS and 100 μl/well of Antibody Mix were added to each well. The plates were incubate at room temperature for another hour after which they were washed 4 times with 225 μl of 1×PBS and 100 μl/well of Lumino substrate were added to each well. The luminescence was measured by using a BMG luminescence microplate reader.
To prepare the Blocking Buffer (1 liter; 1% Casein in 1×PBS), 10 grams of Casein (Hammersten Grade Casein from Gallard-Schlesinger Inc. #440203) were placed into 1 liter of 1×PBS, stirred on a hot plate and kept between 50-60° C. for an hour. The buffer was allowed to cool to room temperature and then filtered using a Buchner Funnel (Buchner filter funnel 83 mm 30310-109) and Whatman filter paper (Whatman Grade No. 1 Filter paper 28450-070). It was stored at 4° C. until used.
The reaction buffer consisted of 62.5 mM Tris pH 7.6 (Trizma Base—Sigma T-8524), 3 mM MgCl2 (Magnesium Chloride—Sigma M-2393), 1 mM DTT (Sigma D-9779), 2.5 mM ATP (Roche Boehringer Mann Corp. 635-316), 100 ng/well of Flag-ubiquitin, 0.1% BSA (Sigma A-7906), and 0.05% Tween-20 (Sigma P-7949).
The Protein Buffer consisted of 20 mM Tris pH 7.6, 10% glycerol (Sigma G-5516) and 1 mM DTT.
The antibody mix consisted of 0.25% BSA (Sigma A-7906) in 1×PBS, 1/50,000 anti-Flag (Sigma F-3165), 1/100,000 of anti-Mouse IgG-HRP (Jackson Immunoresearch #115-035-146).
The substrate mix consisted of SuperSignal Substrate from Pierce (catalog number 37070ZZ) and was prepared by mixing 100 ml of the peroxide solution, 100 ml of the enhancer solution and 100 ml of Milli-Q® water.
In similar manner, autoubiquitination of the E3 MDM2 was determined (MDM2-FLAG). Further instruction in such assays can be found in U.S. patent application Ser. No. 10/108,767 (Publication No. US-2003-0104474 A1), which is incorporated herein in its entirety.

HCT116 cells [3] = assay: Cell proliferation assay, photographic image analysis of proliferation, apoptosis and death (PAD assay), HCT116; type: cell-based; details: 6 concentrations tested
Procedure, shortened: (§2)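 Cells grown in RPMI with 5% FBS (2,000/well) and dosed 24 h after plating with 6.3-fold dilutions in duplicate (master plate 500× final, top 10 mM stock). After 48 h at 37 °C, cells formamide-fixed and DAPI-stained. Image analysis counted live, apoptotic and dead cells.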

HeLa cells [4] = assay: Non-photographic proliferation analysis (Promega Cell titer Aqueous), HeLa; type: cell-based; details: 6 concentrations tested
Procedure, shortened: as §1

A549 cells [5] = assay: Cell proliferation assay, photographic image analysis of proliferation, apoptosis and death (PAD assay), A549; type: cell-based; details: 6 concentrations tested
Procedure, shortened: as §2

HeLa cells [6] = assay: Cell proliferation assay, photographic image analysis of proliferation, apoptosis and death (PAD assay), HeLa; type: cell-based; details: 6 concentrations tested
Procedure, shortened: as §2

HCT116 cells [7] = assay: Non-photographic proliferation analysis (Promega Cell titer Aqueous), HCT116; type: cell-based; details: 6 concentrations tested
Protocol: A549 (ATCC# CCL-185), HeLa (ATCC# CCL-2), HCT116 (ATCC# CCL-247), and H1299 (ATCC# CRL-5803) cells were maintained in T175 flasks following the ATCC recommended media and handling procedures. Flasks reaching approximately 70% confluency were trypsinized and resuspended in RPMI media (Cell-Gro catalog number 10-040-CM) modified to contain 5% FBS, 100 ug/mlPen/Strep (Cell-Gro catalog number 30-002-CL), and 0.3 mg/ml L-Glutamine (Cell-Gro catalog number 25-003-CL). A 20,000 cells/ml solution was made for plating. Cells were plated in black Packard 96 well plates by placing 100 μl per well (2,000 cells per well).
Compounds and additional media were added 24 hours after cell plating. A compound master plate was created with concentrations 500 times greater than the final concentration added to the cells. All compound testing was done in duplicate using 6.3 fold dilutions starting with 10 mM. All outside wells (and 4 internal wells) were DMSO controls. Taxol and at least one additional control were run on all plates. Three microliters of the compound master plate were added to deep well blocks containing 750 μl of RPMI media. One hundred microliters were transferred from the compound/media deep well blocks to the plated cells resulting in a 500 fold dilution of the compounds. Cells were grown at 37° C., 5% CO2 for 48 hours.
Some cell plates were treated with Promega Cell titer Aqueous 1 kit (promega—VWR catalog number G3580). In this case, 48 hours after the test compound were added, 100 μl of media were removed and 20 μl of cell titer reagent were added to all wells. Plates were incubated at 37° C. for 45 minutes prior to absorbance reads on the Wallac plate reader at 490 nm for 0.1 sec/well.

| MDM2-P53 Flag 8 pt (MDM2 / p53 substrate) | APC Flag 8 pt [2] | MDM2-Auto Flag 8 pt (E3 MDM2) | SMILES | Cell Titer-Aqueous, A549 6 pt (A549 cells [1]) | PAD Assay, HCT116 6 pt (HCT116 cells [3]) | Cell Titer-Aqueous, HELA 6 pt (HeLa cells [4]) | PAD Assay, A549 6 pt (A549 cells [5]) | PAD Assay, HELA 6 pt (HeLa cells [6]) | Cell Titer-Aqueous, HCT116 6 pt (HCT116 cells [7]) |
| --- | --- | --- | --- | --- | --- | --- | --- | --- | --- |
| + | + | + | O=[N+]([O-])c1ccc(Oc2c(Cl)cc(S(=O)(=O)Nc3cc(Br)cc(Br)n3)cc2Cl)c(Cl)c1 [Compound 218] | + | − | + | − | + |  |
| + | + | + | O=[N+]([O-])c1ccc(Oc2c(Cl)cc(S(=O)(=O)/N=C(\NO)Nc3ccc(Cl)cc3)cc2Cl)c(Cl)c1 [Example 58, 3,5-dichloro-4-(2-chloro-4-nitrophenoxy)-N-[(1Z)-[(4-chlorophenyl)amino](hydroxy-amino)methylene]benzenesulfonamide] | + |  | + | + | + | + |
| + | + | + | O=[N+]([O-])c1ccc(Oc2c(Cl)cc(S(=O)(=O)Nc3cc(Cl)ccc3Cl)cc2Cl)c(Cl)c1 [Compound 203, 3,5-dichloro-4-(2-chloro-4-nitrophenoxy)-N-(2,5-dichlorophenyl)benzene sulfonamide] | + | + | + | + | + |  |

| SMILES | MDM2-P53 Flag 8 pt (MDM2 / p53 substrate) | APC Flag 8 pt [2] | MDM2-Auto Flag 8 pt (E3 MDM2) | Cell Titer-Aqueous, A549 6 pt (A549 cells [1]) | PAD Assay, HCT116 6 pt (HCT116 cells [3]) | Cell Titer-Aqueous, HELA 6 pt (HeLa cells [4]) | PAD Assay, A549 6 pt (A549 cells [5]) | PAD Assay, HELA 6 pt (HeLa cells [6]) | Cell Titer-Aqueous, HCT116 6 pt (HCT116 cells [7]) |
| --- | --- | --- | --- | --- | --- | --- | --- | --- | --- |
| O=[N+]([O-])c1ccc(Oc2c(Cl)cc(S(=O)(=O)Nc3cc([N+](=O)[O-])ccc3F)cc2Cl)c(Cl)c1 [Compound 220, 3,5-dichloro-4-(2-chloro-4-nitrophenoxy)-N-(2-fluoro-5-nitrophenyl)benzene sulfonamide] | − | + | + | + | + | + | + | + |  |
| O=[N+]([O-])c1ccc(Oc2c(Cl)cc(S(=O)(=O)Nc3ccc(Cl)cc3[N+](=O)[O-])cc2Cl)c(Cl)c1 [Compound 215, 3,5-dichloro-4-(2-chloro-4-nitrophenoxy)-N-(4-chloro-2-nitrophenyl)benzene sulfonamide] | + | + | + | + | + | + | + | + |  |
